Results published in patent US20230017045A1, “PYRIDINE AND PYRIMIDINE CARBOXYLATE HERBICIDES AND METHODS OF USE THEREOF” (Dow AgroSciences LLC, priority 2017, published 2023).
Like-named read-outs stand apart in the source and are kept apart here.

Test system: test plant species
Assay: Post-emergent herbicidal activity test (greenhouse, foliar spray, visual growth reduction)
Assay type: in vivo
Conditions: post-emergence, 336 h, 140 g ai/ha
Outline: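 Seedlings were raised 7-21 d in a greenhouse under a 15 h photoperiod until the first or second true leaf. Each compound, dissolved in acetone:DMSO 97:3 and diluted into a surfactant-containing spray mixture, was then applied at 187 L/ha. Plants were subirrigated, and growth reduction was scored visually at 14 d.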

[1] = ECHCG: barnyardgrass (Echinochloa crus-galli), 14 days after application, read-out: Visual Growth Reduction (%) 14 Days After Application, ECHCG
[2] = IPOHE: ivy-leaf morning glory (Ipomoea hederacea), 14 days after application, read-out: Visual Growth Reduction (%) 14 Days After Application, IPOHE
[3] = KCHSC: kochia (Bassia scoparia), 14 days after application, read-out: Visual Growth Reduction (%) 14 Days After Application, KCHSC
[4] = ORYSA: rice (Oryza sativa), 14 days after application, read-out: Visual Growth Reduction (%) 14 Days After Application, ORYSA
[5] = SETFA: giant foxtail (Setaria faberi), 14 days after application, read-out: Visual Growth Reduction (%) 14 Days After Application, SETFA
[6] = SORVU: grain sorghum (Sorghum vulgare), 14 days after application, read-out: Visual Growth Reduction (%) 14 Days After Application, SORVU
[7] = STEME: common chickweed (Stellaria media), 14 days after application, read-out: Visual Growth Reduction (%) 14 Days After Application, STEME
[8] = TRZAS: wheat, spring (Triticum aestivum), 14 days after application, read-out: Visual Growth Reduction (%) 14 Days After Application, TRZAS
[9] = blackgrass (Alopecurus myosuroides), 14 Days After Application, read-out: Visual Growth Reduction (%) ALOMY
[10] = canada thistle (Cirsium arvense), 14 Days After Application, read-out: Visual Growth Reduction (%) CIRAR
[11] = crabgrass (Digitaria sanguinalis), 14 Days After Application, read-out: Visual Growth Reduction (%) DIGSA
[12] = lambsquarters (Chenopodium album), 14 Days After Application, read-out: Visual Growth Reduction (%) CHEAL
[13] = redroot pigweed (Amaranthus retroflexus), 14 Days After Application, read-out: Visual Growth Reduction (%) AMARE
[14] = wild oat (Avena fatua), 14 Days After Application, read-out: Visual Growth Reduction (%) AVEFA
[15] = yellow nutsedge (Cyperus esculentus), 14 Days After Application, read-out: Visual Growth Reduction (%) CYPES
[16] = ALOMY: blackgrass (Alopecurus myosuroides), 14 days after application, read-out: Visual Growth Reduction (%) 14 Days After Application, ALOMY
[17] = AMARE: redroot pigweed (Amaranthus retroflexus), 14 days after application, read-out: Visual Growth Reduction (%) 14 Days After Application, AMARE
[18] = AVEFA: wild oat (Avena fatua), 14 days after application, read-out: Visual Growth Reduction (%) 14 Days After Application, AVEFA
[19] = CHEAL: lambsquarters (Chenopodium album), 14 days after application, read-out: Visual Growth Reduction (%) 14 Days After Application, CHEAL
[20] = CIRAR: canada thistle (Cirsium arvense), 14 days after application, read-out: Visual Growth Reduction (%) 14 Days After Application, CIRAR
[21] = CYPES: yellow nutsedge (Cyperus esculentus), 14 days after application, read-out: Visual Growth Reduction (%) 14 Days After Application, CYPES
[22] = DIGSA: crabgrass (Digitaria sanguinalis), 14 days after application, read-out: Visual Growth Reduction (%) 14 Days After Application, DIGSA

Compound	pest or weed control at 140 g/ha [1] [%]	pest or weed control at 140 g/ha [2] [%]	pest or weed control at 140 g/ha [3] [%]	pest or weed control at 140 g/ha [4] [%]	pest or weed control at 140 g/ha [5] [%]	pest or weed control at 140 g/ha [6] [%]	pest or weed control at 140 g/ha [7] [%]	pest or weed control at 140 g/ha [8] [%]	pest or weed control at 140 g/ha [9] [%]	pest or weed control at 140 g/ha [10] [%]	pest or weed control at 140 g/ha [11] [%]	pest or weed control at 140 g/ha [12] [%]	pest or weed control at 140 g/ha [13] [%]	pest or weed control at 140 g/ha [16] [%]	pest or weed control at 140 g/ha [17] [%]	pest or weed control at 140 g/ha [18] [%]	pest or weed control at 140 g/ha [19] [%]	pest or weed control at 140 g/ha [20] [%]	pest or weed control at 140 g/ha [21] [%]	pest or weed control at 140 g/ha [22] [%]	other results
COC(=O)c1nc(-c2ccc(C(F)(F)F)c(Cl)c2)c(F)cc1Cl [F305, Methyl 3-chloro-6-(3-chloro-4-(trifluoromethyl)phenyl)-5-fluoropicolinate]	0 to 29	95 to 100	0 to 29	0 to 29	0 to 29	75 to 84	0 to 29	0 to 29	0 to 29	0 to 29	85 to 94	45 to 59	30 to 44	–	–	–	–	–	–	–	pest or weed control at 140 g/ha [14]: 0 to 29%; pest or weed control at 140 g/ha [15]: 45 to 59%
O=C(O)c1nc(-c2ccc(Cl)c3c2OC(F)(F)O3)ccc1Cl [F67, 3-Chloro-6-(7-chloro-2,2-difluorobenzo[d] [1,3]dioxol-4-yl) picolinic acid]	0 to 29	0 to 29	0 to 29	0 to 29	0 to 29	0 to 29	–	–	–	–	–	–	–	0 to 29	45 to 59	0 to 29	0 to 29	0 to 29	0 to 29	0 to 29	–
COC(=O)c1nc(-c2ccc(C3CC3)cc2Cl)ccc1Cl [F15, methyl 3-chloro-6-(2-chloro-4-cyclopropylphenyl)picolinate]	–	–	–	–	–	–	–	–	–	–	–	–	–	0 to 29	30 to 44	0 to 29	45 to 59	0 to 29	30 to 44	0 to 29	pest or weed control at 140 g/ha (barnyardgrass (Echinochloa crus-galli), 14 Days After Application, read-out: Visual Growth Reduction (%) ECHCG): 0 to 29%; pest or weed control at 140 g/ha (common chickweed (Stellaria media), 14 Days After Application, read-out: Visual Growth Reduction (%) STEME): 0 to 29%; pest or weed control at 140 g/ha (giant foxtail (Setaria faberi), 14 Days After Application, read-out: Visual Growth Reduction (%) SETFA): 0 to 29%; pest or weed control at 140 g/ha (ivy-leaf morning glory (Ipomoea hederacea), 14 Days After Application, read-out: Visual Growth Reduction (%) IPOHE): 95 to 100%; pest or weed control at 140 g/ha (johnsongrass (Sorghum vulgare), 14 Days After Application, read-out: Visual Growth Reduction (%) SORVU): 0 to 29%; pest or weed control at 140 g/ha (kochia (Bassia scoparia), 14 Days After Application, read-out: Visual Growth Reduction (%) KCHSC): 0 to 29%; pest or weed control at 140 g/ha (rice (Oryza sativa), 14 Days After Application, read-out: Visual Growth Reduction (%) ORYSA): 0 to 29%; pest or weed control at 140 g/ha (wheat, spring (Triticum aestivum), 14 Days After Application, read-out: Visual Growth Reduction (%) TRZAS): 0 to 29%
COC(=O)c1nc(-c2ncc(Cl)c(C(F)F)c2Cl)ccc1Cl [F184]	85 to 94	95 to 100	0 to 29	30 to 44	85 to 94	95 to 100	0 to 29	30 to 44	–	–	–	–	–	0 to 29	60 to 74	0 to 29	60 to 74	45 to 59	0 to 29	60 to 74	–
O=C(O)c1nc(-c2ccc(C(F)(F)F)nc2)ccc1Cl [F95, 5-Chloro-6′-(trifluoromethyl)-[2,3′-bipyridine]-6-carboxylic acid]	0 to 29	45 to 59	0 to 29	0 to 29	0 to 29	0 to 29	0 to 29	0 to 29	–	–	–	–	–	0 to 29	0 to 29	0 to 29	0 to 29	0 to 29	0 to 29	0 to 29	–
COC(=O)c1nc(-c2cc(F)c(Cl)cc2Cl)ccc1Cl [F65, Methyl 3-chloro-6-(2,4-dichloro-5-fluorophenyl) picolinate]	60 to 74	95 to 100	0 to 29	30 to 44	85 to 94	60 to 74	0 to 29	–	–	–	–	–	–	0 to 29	95 to 100	0 to 29	60 to 74	85 to 94	0 to 29	95 to 100	–
Cc1cnc(-c2ccc(Cl)c(C(=O)O)n2)c(F)c1 [F208, 5-Chloro-3′-fluoro-5′-methyl-[2,2′-bipyridine]-6-carboxylic acid]	0 to 29	0 to 29	0 to 29	0 to 29	0 to 29	0 to 29	0 to 29	0 to 29	0 to 29	0 to 29	0 to 29	85 to 94	0 to 29	–	–	–	–	–	–	–	pest or weed control at 140 g/ha [14]: 0 to 29%; pest or weed control at 140 g/ha [15]: 0 to 29%
COc1cc(C(F)(F)F)ccc1-c1ncc(Cl)c(C(=O)O)n1 [F366, 5-Chloro-2-(2-methoxy-4-(trifluoromethyl)phenyl)pyrimidine-4-carboxylic acid]	75 to 84	95 to 100	0 to 29	0 to 29	75 to 84	75 to 84	0 to 29	0 to 29	0 to 29	30 to 44	75 to 84	85 to 94	75 to 84	–	–	–	–	–	–	–	pest or weed control at 140 g/ha [14]: 0 to 29%; pest or weed control at 140 g/ha [15]: 0 to 29%
COC(=O)c1nc(-c2ccc(Cl)c(C)c2Cl)ccc1Cl [F48, Methyl 3-chloro-6-(2,4-dichloro-3-methylphenyl) picolinate]	0 to 29	–	45 to 59	0 to 29	0 to 29	0 to 29	0 to 29	0 to 29	–	–	–	–	–	0 to 29	60 to 74	0 to 29	95 to 100	0 to 29	0 to 29	0 to 29	–
